Test [1] in a line: Metal chelating activity assessed as compound-Fe(III) complex formation by measuring RhB degradation in MgO2/Fe(III) system measured within 30 mins by UV-Visible spectrophotometry.
Test [2] deals with Pseudomonas aeruginosa. Briefly: Bactericidal activity against Pseudomonas aeruginosa ATCC 10145 assessed as bacterial killing incubated in MHB for 24 hrs and measured following culturing on agar plate for 24 hrs. The class given is functional. As to conditions: time 48 hrs.
In test [3] the test system is Pseudomonas aeruginosa. Kind of test: Antibacterial activity against Pseudomonas aeruginosa ATCC 10145 assessed as inhibition of bacterial growth incubated for 24 hrs by broth microdilution method. In kind it is functional. In general terms: Broth dilution looks for growth in wells or tubes with falling amounts of substance.
For test [4], the system named is Staphylococcus aureus. Kind of test: Bactericidal activity against Staphylococcus aureus CECT 976 assessed as bacterial killing incubated in MHB for 24 hrs and measured following culturing on agar plate for 24 hrs. In kind it is functional. The settings on record: time 48 hrs.
For test [5], the system named is Staphylococcus aureus. Briefly: Antibacterial activity against Staphylococcus aureus CECT 976 assessed as inhibition of bacterial growth incubated for 24 hrs by broth microdilution method. In kind it is functional.

Values after ≈ are worked out from the molar mass of the structure shown.

For `O=C(O)C(=O)O`, the Activity in test [1] was found to be 48.9%.

As to `O=C(O)CC(O)(CC(=O)O)C(=O)O`, the Activity in test [1] was determined as 42.3%.

For the compound `O=C(O)CN(CCN(CC(=O)O)CC(=O)O)CC(=O)O`, the Activity in test [1] was determined as 25.8%.

As to `O=C(O)[C@@H](O)[C@H](O)C(=O)O`, the Activity in test [1] was determined as 98.5%.

On to `O=C(O)c1cn(C2CC2)c2cc(N3CCNCC3)c(F)cc2c1=O` [CIPROFLOXACIN], for which the minimum bactericidal concentration (MBC) with Pseudomonas aeruginosa [2] came to 32 µg/mL (≈ 96.6 µM); in the test on Staphylococcus aureus [4] it was 8 µg/mL (≈ 24.1 µM). The minimum inhibitory concentration (MIC) in the test with Pseudomonas aeruginosa [3] came out at 32 µg/mL (≈ 96.6 µM).

For `NC[C@H]1O[C@H](O[C@H]2[C@H](O)[C@@H](O[C@H]3O[C@H](CO)[C@@H](O)[C@H](N)[C@H]3O)[C@H](N)C[C@@H]2N)[C@H](N)C[C@@H]1O` [TOBRAMYCIN], the results for the MIC in the test with Staphylococcus aureus [5] and in the test on Pseudomonas aeruginosa [3] were 4 µg/mL (≈ 8.56 µM) and 8 µg/mL (≈ 17.1 µM), respectively. In addition, the MBC was 16 µg/mL (≈ 34.2 µM) with Pseudomonas aeruginosa [2] and 4 µg/mL (≈ 8.56 µM) in the test with Staphylococcus aureus [4].

What is called MBC is the smallest concentration meeting the test's criterion for killing. Usually MIC stands for the smallest concentration in the dilution series that meets the test's criterion for growth inhibition.

The values are drawn from ChEMBL document CHEMBL6120994, “Unravelling the potential of natural chelating agents in the control of Staphylococcus aureus and Pseudomonas aeruginosa biofilms” (Eur J Med Chem, 2025).
